IC50 data for 19 molecules are collected here from patent US20240050428A1 (Cullgen (Shanghai), Inc., priority 2020, published 2024).

One assay has as its system MV4;11 cells. Description: Cell viability assay (CellTiter-Glo) in MV4;11 cells, alone or with gilteritinib. Format: cell-based. Particulars: Homo sapiens, MV4-11, 72 h, MV4;11 cells, three days, CellTiter-Glo, read-out: MV4. (ATP-based viability assays read luminescence as a measure of living cells.)
The subject of a further assay is MOLM-13 cells. The assay is described as follows: Cell viability assay (CellTiter-Glo) in MOLM-13 cells, alone or with gilteritinib. Format: cell-based. Particulars: Homo sapiens, MOLM-13, 72 h, MOLM-13 cells, three days, CellTiter-Glo.
Setting [1] is: compound alone (without gilteritinib), 11 IC50.
[2] abbreviates: with gilteritinib 10 nM, 11 IC50 gilteritinib.
[3] abbreviates: compound alone (without gilteritinib), read-out: MOLM-13 IC50.
[4] abbreviates: with gilteritinib 20 nM, read-out: MOLM-13 IC50 gilteritinib.

Where two headings read alike, the source gives them in different places.

With `O=C1CCC(N2C(=O)c3ccc(NC[C@H]4C[C@H](n5cc(-c6cnc7ccc(CN8CCNCC8)cc7n6)c(C6CC6)n5)C4)cc3C2=O)C(=O)N1` (stereo partly drawn) [GS-068, 5-(((trans-3-(3-cyclopropyl-4-(7-(piperazin-1-ylmethyl)quinoxalin-2-yl)-1H-pyrazol-1-yl)cyclobutyl)methyl)amino)-2-(2,6-dioxopiperidin-3-yl)isoindoline-1,3-dione], the IC50 with MV4;11 cells (setting [1]) is 10 to 100 nM; in the assay on MV4;11 cells (setting [2]) it was below 10 nM; in the assay on MOLM-13 cells (setting [3]) it was above 1000 nM; in the assay on MOLM-13 cells (setting [4]), 10 to 100 nM.

`CCc1cccc(-c2cn([C@H]3C[C@H](CNc4ccc5c(c4)C(=O)N(C4CCC(=O)NC4=O)C5=O)C3)nc2C2CC2)n1` (stereo partly drawn) [GS-069, 5-(((trans-3-(3-Cyclopropyl-4-(6-ethylpyridin-2-yl)-1H-pyrazol-1-yl)cyclobutyl)methyl)amino)-2-(2,6-dioxopiperidin-3-yl)isoindoline-1,3-dione]: the IC50 with MV4;11 cells (setting [1]) is 10 to 100 nM; in the assay on MV4;11 cells (setting [2]) it was below 10 nM; with MOLM-13 cells (setting [3]), 100 to 1000 nM; with MOLM-13 cells (setting [4]) it was 10 to 100 nM.

Consider `O=C1CCC(N2C(=O)c3ccc(NCCC[C@H]4C[C@H](n5cc(-c6ncccc6Cl)c(C6CC6)n5)C4)cc3C2=O)C(=O)N1` (stereo partly drawn) [GS-070, 5-((3-(trans-3-(4-(3-chloropyridin-2-yl)-3-cyclopropyl-1H-pyrazol-1-yl)cyclobutyl)propyl)amino)-2-(2,6-dioxopiperidin-3-yl)isoindoline-1,3-dione], for which the IC50 was 10 to 100 nM with MV4;11 cells (setting [1]), below 10 nM in the assay with MV4;11 cells (setting [2]), 100 to 1000 nM in the assay on MOLM-13 cells (setting [3]) and below 10 nM in the assay with MOLM-13 cells (setting [4]).

Take `Cc1cccc(-c2cn([C@H]3C[C@H](CNc4ccc5c(c4)C(=O)N(C4CCC(=O)NC4=O)C5=O)C3)nc2C2CCOCC2)n1` (stereo partly drawn) [GS-071, 2-(2,6-Dioxopiperidin-3-yl)-5-(((trans-3-(4-(6-methylpyridin-2-yl)-3-(tetrahydro-2H-pyran-4-yl)-1H-pyrazol-1-yl)cyclobutyl)methyl)amino)isoindoline-1,3-dione]: the IC50 is above 1000 nM in the assay on MV4;11 cells (setting [1]), 10 to 100 nM in the assay with MV4;11 cells (setting [2]), above 1000 nM in the assay on MOLM-13 cells (setting [3]) and 10 to 100 nM in the assay on MOLM-13 cells (setting [4]).

Turning to `O=C1CCC(N2Cc3cc(Nc4ccnc(Nc5ccc6c(c5)CC(N5CCC(n7cc(-c8cnc9cccc(Br)c9n8)cn7)CC5)C6)n4)ccc3C2=O)C(=O)N1` (stereo not shown) [GS-072, 3-(5-((2-((2-(4-(4-(8-Bromoquinoxalin-2-yl)-1H-pyrazol-1-yl)piperidin-1-yl)-2,3-dihydro-1H-inden-5-yl)amino)pyrimidin-4-yl)amino)-1-oxoisoindolin-2-yl)piperidine-2,6-dione], the IC50 with MV4;11 cells (setting [1]) is above 1000 nM; in the assay on MV4;11 cells (setting [2]), 100 to 1000 nM; in the assay on MOLM-13 cells (setting [3]) it was above 1000 nM; in the assay with MOLM-13 cells (setting [4]) it was 100 to 1000 nM.

For the molecule `O=C1CCC(N2Cc3cc(Nc4ccnc(Nc5ccc6c(c5)CC(N5CCC(n7cc(-c8cnc9ccccc9n8)cn7)CC5)C6)n4)ccc3C2=O)C(=O)N1` (stereo not shown) [GS-073, 3-(1-Oxo-5-((2-((2-(4-(4-(quinoxalin-2-yl)-1H-pyrazol-1-yl)piperidin-1-yl)-2,3-dihydro-1H-inden-5-yl)amino)pyrimidin-4-yl)amino)isoindolin-2-yl)piperidine-2,6-dione], the IC50 with MV4;11 cells (setting [1]) was 100 to 1000 nM; with MV4;11 cells (setting [2]), 10 to 100 nM; in the assay with MOLM-13 cells (setting [3]), 100 to 1000 nM; in the assay with MOLM-13 cells (setting [4]), 100 to 1000 nM.

With `O=C1CCC(N2Cc3c(Nc4ccnc(N5CCC(N6CCC(n7cc(-c8cnc9ccccc9n8)cn7)CC6)C5)n4)cccc3C2=O)C(=O)N1` (stereo not shown) [GS-074, 3-(1-Oxo-4-((2-(3-(4-(4-(quinoxalin-2-yl)-1H-pyrazol-1-yl)piperidin-1-yl)pyrrolidin-1-yl)pyrimidin-4-yl)amino)isoindolin-2-yl)piperidine-2,6-dione], the IC50 in the assay with MV4;11 cells (setting [1]), in the assay on MV4;11 cells (setting [2]), in the assay on MOLM-13 cells (setting [3]) and with MOLM-13 cells (setting [4]) was above 1000 nM throughout.

As for `O=C1CCC(N2Cc3c(Nc4ccnc(Nc5cccc(N6CCC(c7ccccc7)CC6)c5)n4)cccc3C2=O)C(=O)N1` (stereo not shown) [GS-075], the IC50 was 100 to 1000 nM in the assay with MV4;11 cells (setting [1]), 10 to 100 nM in the assay with MV4;11 cells (setting [2]), 100 to 1000 nM in the assay on MOLM-13 cells (setting [3]) and 10 to 100 nM in the assay with MOLM-13 cells (setting [4]).

For `O=C1CCC(N2Cc3c(Nc4ccnc(Nc5cccc(N6CCN(c7ccccn7)CC6)c5)n4)cccc3C2=O)C(=O)N1` (stereo not shown) [GS-076, 3-(1-Oxo-4-((2-((3-(4-(pyridin-2-yl)piperazin-1-yl)phenyl)amino)pyrimidin-4-yl)amino)isoindolin-2-yl)piperidine-2,6-dione], the IC50 is 10 to 100 nM with MV4;11 cells (setting [1]), below 10 nM with MV4;11 cells (setting [2]), 10 to 100 nM in the assay on MOLM-13 cells (setting [3]) and below 10 nM in the assay with MOLM-13 cells (setting [4]).

For `O=C1CCC(N2Cc3c(Nc4ccnc(Nc5cccc(N6CCC(c7ccccn7)CC6)c5)n4)cccc3C2=O)C(=O)N1` (stereo not shown) [GS-077, 3-(1-Oxo-4-((2-((3-(4-(pyridin-2-yl)piperidin-1-yl)phenyl)amino)pyrimidin-4-yl)amino)isoindolin-2-yl)piperidine-2,6-dione], the IC50 was below 10 nM in the assay with MV4;11 cells (setting [1]), below 10 nM in the assay on MV4;11 cells (setting [2]), 10 to 100 nM in the assay with MOLM-13 cells (setting [3]) and below 10 nM in the assay with MOLM-13 cells (setting [4]).

As for `O=C1CCC(N2Cc3c(Nc4ccnc(Nc5cccc(N6CCN(c7ncccn7)CC6)c5)n4)cccc3C2=O)C(=O)N1` (stereo not shown) [GS-078, 3-(1-Oxo-4-((2-((3-(4-(pyrimidin-2-yl)piperazin-1-yl)phenyl)amino)pyrimidin-4-yl)amino)isoindolin-2-yl)piperidine-2,6-dione], the IC50 was 10 to 100 nM with MV4;11 cells (setting [1]), below 10 nM with MV4;11 cells (setting [2]), 10 to 100 nM in the assay with MOLM-13 cells (setting [3]) and below 10 nM in the assay with MOLM-13 cells (setting [4]).

Turning to `O=C1CCC(N2Cc3c(Nc4ccnc(Nc5cccc(C(=O)N6CCC(n7cc(-c8cnc9ccccc9n8)cn7)CC6)c5)n4)cccc3C2=O)C(=O)N1` (stereo not shown) [GS-079, 3-(1-Oxo-4-((2-((3-(4-(4-(quinoxalin-2-yl)-1H-pyrazol-1-yl)piperidine-1-carbonyl)phenyl)amino)pyrimidin-4-yl)amino)isoindolin-2-yl)piperidine-2,6-dione], the IC50 with MV4;11 cells (setting [1]) was 100 to 1000 nM; in the assay with MV4;11 cells (setting [2]), 10 to 100 nM; in the assay with MOLM-13 cells (setting [3]) it was above 1000 nM; with MOLM-13 cells (setting [4]) it was 100 to 1000 nM.

Take `O=C1CCC(N2Cc3c(Nc4ccnc(Nc5cccc(C(=O)N6CCN(c7ccccn7)CC6)c5)n4)cccc3C2=O)C(=O)N1` (stereo not shown) [GS-080, 3-(1-Oxo-4-((2-((3-(4-(pyridin-2-yl)piperazine-1-carbonyl)phenyl)amino)pyrimidin-4-yl)amino)isoindolin-2-yl)piperidine-2,6-dione]: the IC50 in the assay on MV4;11 cells (setting [1]) is above 1000 nM; in the assay on MV4;11 cells (setting [2]) it was 100 to 1000 nM; with MOLM-13 cells (setting [3]) it was above 1000 nM; in the assay on MOLM-13 cells (setting [4]), 100 to 1000 nM.

Turning to `O=C1CCC(N2Cc3c(Nc4ccnc(N5CCC(n6cc(-c7cnc8ccccc8n7)cn6)CC5)n4)cccc3C2=O)C(=O)N1` (stereo not shown) [GS-081, 3-(1-Oxo-4-((2-(4-(4-(quinoxalin-2-yl)-1H-pyrazol-1-yl)piperidin-1-yl)pyrimidin-4-yl)amino)isoindolin-2-yl)piperidine-2,6-dione], the IC50 in the assay with MV4;11 cells (setting [1]), with MV4;11 cells (setting [2]), in the assay with MOLM-13 cells (setting [3]) and with MOLM-13 cells (setting [4]) was above 1000 nM each time.

With `O=C(CC1CC(N2CCC(n3cc(-c4cnc5ccccc5n4)cn3)CC2)C1)NCc1ccc2c(c1)CN(C1CCC(=O)NC1=O)C2=O` (stereo not shown) [GS-082, N-((2-(2,6-Dioxopiperidin-3-yl)-1-oxoisoindolin-5-yl)methyl)-2-(3-(4-(4-(quinoxalin-2-yl)-1H-pyrazol-1-yl)piperidin-1-yl)cyclobutyl)acetamide], the IC50 in the assay with MV4;11 cells (setting [1]) was above 1000 nM; with MV4;11 cells (setting [2]), 100 to 1000 nM; in the assay with MOLM-13 cells (setting [3]), above 1000 nM; with MOLM-13 cells (setting [4]) it was 100 to 1000 nM.

Consider `O=C(CC1CC1N1CCC(n2cc(-c3cnc4ccccc4n3)cn2)CC1)NCc1ccc2c(c1)CN(C1CCC(=O)NC1=O)C2=O` (stereo not shown) [GS-083, N-((2-(2,6-Dioxopiperidin-3-yl)-1-oxoisoindolin-5-yl)methyl)-2-(2-(4-(4-(quinoxalin-2-yl)-1H-pyrazol-1-yl)piperidin-1-yl)cyclopropyl)acetamide], for which the IC50 in the assay on MV4;11 cells (setting [1]) was in the range of 10 to 100 nM; in the assay with MV4;11 cells (setting [2]) it was 10 to 100 nM; in the assay with MOLM-13 cells (setting [3]) it was 100 to 1000 nM; in the assay with MOLM-13 cells (setting [4]) it was 10 to 100 nM.

Consider `O=C1CCC(N2Cc3c(Nc4ccnc(Nc5cccc(-n6cc(-c7cnc8ccccc8n7)cn6)c5)n4)cccc3C2=O)C(=O)N1` (stereo not shown) [GS-084, 3-(1-Oxo-4-((2-((3-(4-(quinoxalin-2-yl)-1H-pyrazol-1-yl)phenyl)amino)pyrimidin-4-yl)amino)isoindolin-2-yl)piperidine-2,6-dione], for which the IC50 in the assay with MV4;11 cells (setting [1]), in the assay with MV4;11 cells (setting [2]), in the assay on MOLM-13 cells (setting [3]) and in the assay on MOLM-13 cells (setting [4]) was above 1000 nM in each case.

On to `O=C1CCC(N2Cc3c(Nc4ccnc(NCCC(=O)N5CCC(n6cc(-c7cnc8ccccc8n7)cn6)CC5)n4)cccc3C2=O)C(=O)N1` (stereo not shown) [GS-085, 3-(1-Oxo-4-((2-((3-oxo-3-(4-(4-(quinoxalin-2-yl)-1H-pyrazol-1-yl)piperidin-1-yl)propyl)amino)pyrimidin-4-yl)amino)isoindolin-2-yl)piperidine-2,6-dione], for which the IC50 with MV4;11 cells (setting [1]), in the assay on MV4;11 cells (setting [2]), with MOLM-13 cells (setting [3]) and in the assay with MOLM-13 cells (setting [4]) was above 1000 nM throughout.

With `O=C(CC1CCCC(N2CCC(n3cc(-c4cnc5ccccc5n4)cn3)CC2)C1)NCc1ccc2c(c1)CN(C1CCC(=O)NC1=O)C2=O` (stereo not shown) [GS-086, N-((2-(2,6-dioxopiperidin-3-yl)-1-oxoisoindolin-5-yl)methyl)-2-(3-(4-(4-(quinoxalin-2-yl)-1H-pyrazol-1-yl)piperidin-1-yl)cyclohexyl)acetamide], the IC50 in the assay with MV4;11 cells (setting [1]) is above 1000 nM; in the assay on MV4;11 cells (setting [2]), 100 to 1000 nM; in the assay with MOLM-13 cells (setting [3]), above 1000 nM; in the assay with MOLM-13 cells (setting [4]) it was above 1000 nM.
